Columns and labels:
keratin 6A protein [1] = assay: Keratin 6A protein expression in cultured skin tissue of mouse, immunofluorescence staining; type: cell-based; details: cultured 12 days, compared to control group not treated (FIG. 1)
Experimental: (§1) In order to confirm whether ferulic acid induces the expression of keratin 6A protein from the skin tissue of a mouse, the cross-sections of the cultured skin tissue and the skin tissue of an adult mouse were treated with ferulic acid to confirm the expression level of keratin 6A protein using Western blotting and immunofluorescence staining.
First, after peeling off the skin of a mouse within one day of age, a circular skin piece was spread on a 24-well plate using a 4 mm punch (Kai industries). The cell medium was carefully added with the growth factor Cnt-57 according to the method of CELLnTEC, and the medium was replaced once every two days. […]
Specifically, for cell fluorescence staining, 500 μl of a 4% paraformaldehyde solution (solvent, PBS) was reacted for 20 minutes, and then washed three times with a washing buffer (0.1 M, PBS). […]
(§2) For tissue fluorescence staining, after removing paraffin from the paraffin-coated skin tissue, the tissue was washed three times with a washing buffer (0.1 M, PBS), and reacted with a solution containing hydrogen peroxide (0.1 M PBS, 0.2% H2O2) for 30 minutes to eliminate the activity of endogenous peroxidase. […] Then, after washing three times with a washing buffer (0.1 M, PBS), fluorescence photos were taken using a FluoView FV1000 confocal microscope (Olympus, Tokyo, Japan).

keratin 6A protein [2] = assay: Keratin 6A protein expression in skin tissue of an adult mouse, Western blotting and immunofluorescence staining; type: in vivo
Experimental: as §1
as §2, with “Japan). […]” for “Japan).”
(§3) First, in order to confirm the expression levels of two proteins, keratin 6A and beta-catenin, skin tissue was collected and protein was extracted using a dissolution buffer (pH 7.4, 50 mM, Tris-HCL, 150 mM NaCL, 1 mM EDTA, 1 mM EGTA, 10 mg/mL aprotinin, 10 mg/mL leupeptin, 5 mM phenylmethylsulfonyl fluoride and 1 mM DTT). The extracted protein was quantified using a Bradford reaction solution (Bio-Rad, CA, USA), and 20 μL of the protein was electrophoresed by 10% SDS-PAGE, and transferred to a nitrocellulose membrane (Merck, MA, USA). […]

keratin 6A protein [3] = assay: Keratin 6A protein expression in keratin 5 knock-down kera308 cells, Western blotting; type: cell-based, mouse; details: 100 μM, 24 hours, compared to not treated (FIG. 6)
Experimental: as §3, with “USA). The membrane was reacted with primary antibodies keratin 6A (rabbit anti-keratin 6A, 1:200, Covans, NJ, USA) and β-actin (anti-β-actin extracted from mouse, 1:1000, Santa Cruz, TX, USA), and washed three times with TBS-T (Tris Buffered Saline with Tween 20) for 10 minutes, and then the membrane was reacted with a secondary antibody (Santa Cruz, TX, USA) for 1 hour.” for “USA).”
The cells were precultured for 15 hours after attaching 1×10^6 cells/well of kera308 cells, and cultured for 24 hours after being treated with 100 μM ferulic acid. The harvested cells were centrifuged at 13,000 rpm for 5 minutes to take the supernatant, and then the protein concentration was quantified using Bradford assay (BioRed). […]

beta-catenin protein [4] = assay: Beta-catenin protein expression in skin epidermal stem cells, immunofluorescence staining and Western blotting; type: cell-based, mouse; details: skin epidermal stem cells (FIGS. 7 and 8)
Experimental: (§4) In order to confirm whether ferulic acid regulates beta-catenin protein, an experiment was carried out to confirm the expression levels of beta-catenin protein and c-myc protein in epidermal cells and dermal cells of the skin.
(§5) The expression levels of beta-catenin protein and c-myc protein after treating skin epidermal stem cells with ferulic acid, and the expression levels of beta-catenin protein and c-myc protein after treating skin epidermal stem cells with ferulic acid together with LiCl, which is a beta-catenin protein inducer, were confirmed using immunofluorescence staining and Western blotting.
(§6) First, for immunofluorescence staining, the cell fluorescence staining method of Example 1 was referred to. At this time, beta-catenin (anti-beta-catenin extracted from mouse, 1:200, Invitrogen, CA, USA) was used instead of keratin 6A as a primary antibody, and Alexa 647 (anti-mouse IgG derived from goat, 1:1000, Invitrogen, CA, USA) was used instead of Alexa 488 (anti-rabbit IgG extracted from donkey, 1:1000, Invitrogen, CA, USA) as a secondary antibody.
(§7) In addition, for Western blotting, the Western blotting method of Example 1 was referred to. In this case, beta-catenin (anti-beta catenin extracted from mouse, 1:200, Invitrogen, CA, USA) was used instead of keratin 6A as a primary antibody.

c-myc protein [5] = assay: c-myc protein expression in skin epidermal stem cells; type: cell-based, mouse; details: skin epidermal stem cells (FIGS. 7 and 8)
Experimental: as §4, §5, §6, §7

beta-catenin protein [6] = assay: Beta-catenin protein expression in skin dermal stem cells, immunofluorescence staining and Western blotting; type: cell-based, mouse; details: skin dermal stem cells (FIGS. 9 and 10)
Experimental: as §4
as §5, with “dermal” for “epidermal”
as §6, §7

c-myc protein [7] = assay: c-myc protein expression in skin dermal stem cells; type: cell-based, mouse; details: skin dermal stem cells (FIGS. 9 and 10)
Experimental: as §4
as §5, with “dermal” for “epidermal”
as §6, §7

COc1cc(/C=C/C(=O)O)ccc1O [ferulic acid]
expression level of keratin 6A protein (keratin 6A protein [1]): increased | expression level of keratin 6A protein (keratin 6A protein [2]; skin tissue of an adult mouse treated for 3 days and 7 days (FIGS. 2 and 3)): increased significantly | expression level of keratin 6A protein (keratin 6A protein [2]; skin tissue of an adult mouse, 3 days after treating (FIGS. 2 and 3)): particularly high | expression level of keratin 6A protein (keratin 6A protein [3]): increased significantly | expression of beta-catenin protein (beta-catenin protein [4]): suppressed | expression of c-myc protein (c-myc protein [5]): suppressed | amount of beta-catenin protein (beta-catenin protein [6]): increased | amount of c-myc protein (c-myc protein [7]): increased

— US20230285336A1, “COMPOSITION FOR PREVENTION AND TREATMENT OF SKIN DISEASES CAUSED BY GENETIC MUTATION COMPRISING FERULIC ACID AND ANALOGS THEREOF” (UNIVERSITY-INDUSTRY COOPERATION GROUP OF KYUNG HEE …, priority 2019, published 2023)
